{
  "source": "patent US4361511A",
  "about": "“Benzodiazepine derivatives” (Hoffmann-La Roche Inc., priority 1980, dated 1982)",
  "key": {"[1]": {"test": "acute toxicity, single oral administration to mice", "conditions": "mouse, in vivo", "from_the_text": "(§1) The following Table contains results obtained in the previously described experiment with representative compounds of formula I. In this Table there are given for each compound in question the dosage administered (in mg/kg p.o.) as well as the percentage variation in the urine volume), the sodium excretion and the potassium excretion in comparison with the control animals (i.e. in comparison with the animals treated only with aldosterone). Moreover, the Table contains data relating to the acute toxicity of the compounds investigated (LD 50 in mg/kg in the case of a single oral administration to mice)."}, "[2]": {"test_system": "adrenalectomised rats treated with aldosterone", "test": "aldosterone-antagonistic activity in adrenalectomised rats (urine volume, sodium and potassium excretion over 3 hours)", "format": "in vivo, Female Holtzmann rats", "conditions": "for (K+) potassium excretion in %, based on control animals / (Na+) sodium excretion in %, based on control animals / Volume (urine volume) in %, based on control animals: 1 mg/kg p.o., aldosterone 4 mmg/kg s.c. 30 min later, vs animals treated only with aldosterone, urine collected 3 h", "description": "If compounds of formula I are administered to the animals before the treatment with aldosterone, then there is observed, in comparison to animals treated only with aldosterone (control animals), a pronounced increase of the sodium excretion (i.e. the sodium retention caused by aldosterone is antagonised), whereas the potassium excretion and the urine volume are influenced to a lesser extent.\nThe standard experiment is carried out as follows:\nFemale Holtzmann rats (150-180 g) are bilaterally adrenalectomised 70 to 74 hours before the beginning of the experiment. After the operation, the animals receive a customary rat dry feed and 0.9 percent sodium chloride solution for drinking. 16 to 17 hours before the beginning of the experiment the feed is removed from the animals, but they can subsequently drink, as before, 0.9 percent sodium chloride solution ad libitum. At the beginning of the experiment the substance to be tested as an aldosterone-antagonist is administered to the animals by means of a stomach probe. 30 minutes later the animals receive a subcutaneous injection of 4 mmg/kg of aldosterone. After a further 90 minutes, the urinary bladders of the animals are emptied by careful suprapubic pressure, whereupon the animals are placed individually in metabolic cages without food and without drink. The urine of the animals is then collected for 3 hours, whereupon their urinary bladders are once more emptied. The spontaneously excreted urine and the remaining urine obtained at the conclusion of the experiment by pressing-out the urinary bladders are collected in graduated centrifuge glasses. Sodium and potassium concentrations in the urine are determined with a flame photometer.\nas §1"}, "[3]": {"conditions": "in comparison to untreated animals"}},
  "data": [
    {"smiles": "CN1C(=O)CN=C(c2ccccc2F)c2c1cc(Cl)c(NC(=O)NCCN1CCOCC1)c2Cl", "note": "[Example 6, 1-[6,8-dichloro-5-(o-fluorophenyl)-2,3-dihydro-1-methyl-2-oxo-1H-1,4-benzodiazepin-7-yl]-3-(2-morpholinoethyl)urea]", "values": [
      {"measurement": "LD50", "setting": "[1]", "value": 5000, "unit": "mg/kg"},
      {"measurement": "(K+) potassium excretion in %, based on control animals", "setting": "[2]", "value": 91, "unit": "%"},
      {"measurement": "(Na+) sodium excretion in %, based on control animals", "setting": "[2]", "value": 254, "unit": "%"},
      {"measurement": "Volume (urine volume) in %, based on control animals", "setting": "[2]", "value": 183, "unit": "%"}
    ]},
    {"smiles": "C[C@]12CCC(=O)C=C1CC[C@@H]1[C@@H]2[C@@H](O)C[C@]2(C=O)[C@@H](C(=O)CO)CC[C@@H]12", "note": "[aldosterone, reference compound]", "values": [
      {"measurement": "excreted urine volume after aldosterone alone", "setting": "[2]; [3]", "value": "reduction of the excreted urine volume"},
      {"measurement": "potassium excretion after aldosterone alone", "setting": "[2]; [3]", "value": "increased potassium excretion"},
      {"measurement": "sodium excretion after aldosterone alone", "setting": "[2]; [3]", "value": "pronounced reduction of the sodium excretion"}
    ]},
    {"smiles": "CN1C(=O)CN=C(c2ccccc2F)c2c1cc(Cl)c(NC(=O)N1CCN(CCO)CC1)c2Cl", "note": "[Example 5, N-[6,8-dichloro-5-(o-fluorophenyl)-2,3-dihydro-1-methyl-2-oxo-1H-1,4-benzodiazepin-7-yl]-4-(2-hydroxyethyl)-1-piperazinecarboxamide]", "values": [
      {"measurement": "LD50", "setting": "[1]", "value": "> 5000", "unit": "mg/kg"},
      {"measurement": "(K+) potassium excretion in %, based on control animals", "setting": "[2]", "value": 120, "unit": "%"},
      {"measurement": "(Na+) sodium excretion in %, based on control animals", "setting": "[2]", "value": 300, "unit": "%"},
      {"measurement": "Volume (urine volume) in %, based on control animals", "setting": "[2]", "value": 173, "unit": "%"}
    ]},
    {"smiles": "CN(C)C(=O)Nc1c(Cl)cc2c(c1Cl)C(c1ccccc1F)=NCC(=O)N2C", "note": "[Example 4, 3-[6,8-dichloro-5-(o-fluorophenyl)-2,3-dihydro-1-methyl-2-oxo-1H-1,4-benzodiazepin-7-yl]-1,1-dimethylurea]", "values": [
      {"measurement": "LD50", "setting": "[1]", "value": 2500, "unit": "mg/kg"},
      {"measurement": "(K+) potassium excretion in %, based on control animals", "setting": "[2]", "value": 160, "unit": "%"},
      {"measurement": "(Na+) sodium excretion in %, based on control animals", "setting": "[2]", "value": 330, "unit": "%"},
      {"measurement": "Volume (urine volume) in %, based on control animals", "setting": "[2]", "value": 152, "unit": "%"}
    ]}
  ]
}
